Assay results from patent US20090239748A1, “Fungicidal Mixtures Based on 2,5-Disubstituted N-Biphenylpyrazolcarboxamides” (BASF Aktiengesellschaft, priority 2005, published 2009).

Legend:
[1] = tested on: Pyrenophora [syn. Drechslera] teres; assay: Activity against net blotch of barley caused by Pyrenophora teres, 1 day protective application; assay type: in vivo; conditions: 0.25 mg/l, read after 6 days
Method: The active compounds, separately or jointly, were prepared as a stock solution comprising 25 mg of active compound which was made up to 10 ml using a mixture of acetone and/or dimethyl sulfoxide and the emulsifier Uniperol® EL (wetting agent having an emulsifying and dispersing action based on ethoxylated alkylphenols) in a ratio by volume of solvent/emulsifier of 99:1. The mixture was then made up to 100 ml with water. This stock solution was diluted with the solvent/emulsifier/water mixture described to give the concentration of active compound stated below. […]
(§1) The visually determined percentages of infected leaf areas were converted into efficacies in % of the untreated control.
(§2) The efficacy (E) is calculated as follows using Abbot's formula: […]
(§3) The expected efficacies of active compound mixtures were determined using Colby's formula [R. S. Colby, “Calculating synergistic and antagonistic responses of herbicide combinations”, Weeds 15, 20-22 (1967)] and compared with the observed efficacies. […]
Leaves of potted barley seedlings were sprayed to runoff point with an aqueous suspension having the active compound concentration stated below. […] After 6 days, the extent of the development of the disease was determined visually in % infection of the entire leaf area.

Phakopsora pachyrhizi = assay: Curative activity against soybean rust caused by Phakopsora pachyrhizi; assay type: in vivo; conditions: 0.25 mg/l, curative (sprayed 2 days after inoculation), 14 days
Method: (§4) The active compounds, separately or jointly, were prepared as a stock solution comprising 25 mg of active compound which was made up to 10 ml using a mixture of acetone and/or dimethyl sulfoxide and the emulsifier Uniperol® EL (wetting agent having an emulsifying and dispersing action based on ethoxylated alkylphenols) in a ratio by volume of solvent/emulsifier of 99:1. The mixture was then made up to 100 ml with water. This stock solution was diluted with the solvent/emulsifier/water mixture described to give the concentration of active compound stated below.
(§5) Alternatively, the active compounds epoxiconazole and pyraclostrobin were used as a commercial formulation and diluted with water to the stated active compound concentrations.
as §1, §2, §3
Leaves of potted soybean seedlings of the cultivar “Oxford” were inoculated with a spore suspension of soybean rust (Phakopsora pachyrhizi). […] The extent of the rust fungus development on the leaves was then determined.

Puccinia recondita = assay: Protective activity against Puccinia recondita on wheat (brown rust of wheat); assay type: in vivo
Method: as §4, §5, §1, §2
α corresponds to the fungicidal infection of the treated plants in % and β corresponds to the fungicidal infection of the untreated (control) plants in %
An efficacy of 0 means that the infection level of the treated plants corresponds to that of the untreated control plants; an efficacy of 100 means that the treated plants were not infected.
(§6) The expected efficacies of active compound mixtures were determined using Colby's formula [R. S. Colby, “Calculating synergistic and antagonistic responses of herbicide combinations”, Weeds 15, 20-22 (1967)] and compared with the observed efficacies.
(§7) E=x+y−x·y/100 • E expected efficacy, expressed in % of the untreated control, when using the mixture of the active compounds A and B at the concentrations a and b; • x efficacy, expressed in % of the untreated control, when using the active compound A at the concentration a; • y efficacy, expressed in % of the untreated control, when using the active compound B at the concentration b.
Leaves of potted wheat seedlings of the cultivar “Kanzler” were sprayed to runoff point with an aqueous suspension having the active compound concentration stated below. The next day, the treated plants were inoculated with a spore suspension of brown rust of wheat (Puccinia recondita). The plants were then placed in a chamber with high atmospheric humidity (90 to 95%) at 20 to 22° C. for 24 hours. During this time, the spores germinated and the germ tubes penetrated into the leaf tissue. The next day, the test plants were returned to the greenhouse and cultivated at temperatures between 20 and 22° C. and at 65 to 70% relative atmospheric humidity for a further 7 days. The extent of the rust fungus development on the leaves was then determined visually.

Botrytis cinerea = assay: Activity against gray mold on bell pepper leaves caused by Botrytis cinerea, 1 day protective application; assay type: in vivo; conditions: sprayed 1 day before inoculation, read after 5 days
Method: as §4, §1, §2, §3
Bell pepper seedlings of the cultivar “Neusiedler Ideal Elite” were, after 2-3 leaves were well developed, sprayed to runoff point with an aqueous suspension having the active compound concentration stated below. […] After 5 days, the extent of the fungal infection on the leaves could be determined visually in %.

Septoria tritici = assay: Activity against the Septoria leaf spot pathogen Septoria tritici in the microtiter test; assay type: cell-based; conditions: microtiter plate, 405 nm, day 7
Method: as §6, §7
For this test, the active compounds were formulated separately as a stock solution having a concentration of 10 000 ppm in dimethyl sulfoxide.
The stock solution was mixed according to the ratio, pipetted into a microtiter plate (MTP) and diluted with an aqueous malt-based fungus nutrient medium to the stated active compound concentration. An aqueous spore suspension of Septoria tritici was then added. […] Using an absorbtion photometer, the MTPs were measured at 405 nm on day 7 after the inoculation.
The measured parameters were compared to the growth of the active compound-free control variant (100%) and the fungus- and active compound-free blank value to determine the relative growth in % of the pathogens in the individual active compounds.

SMILES: COC(=O)N(OC)c1ccccc1COc1ccn(-c2ccc(Cl)cc2)n1 [pyraclostrobin, methyl N-{2-[1-(4-chlorophenyl)-1H-pyrazol-3-yloxymethyl]phenyl}(N-methoxy)carbamate, reference compound]
- Observed effect (% infection) [1]: 33%
- Observed effect (% infection) (Phakopsora pachyrhizi): 29%

SMILES: Cn1cc(C(=O)Nc2ccccc2-c2cc(Cl)ccc2Cl)c(C(F)F)n1 [No. I.4, N-(2′,5′-dichlorobiphenyl-2-yl)-1-methyl-3-difluoromethyl-1H-pyrazole-4-carboxamide]
- melting point: 130 to 132 °C

SMILES: Cn1cc(C(=O)Nc2ccccc2-c2cc(F)ccc2F)c(C(F)F)n1 [No. I.2, N-(2′,5′-difluorobiphenyl-2-yl)-1-methyl-3-difluoromethyl-1H-pyrazole-4-carboxamide]
- Observed effect (% infection) (Puccinia recondita; 1 mg/l): 52%
- Observed effect (% infection) [1]: 0%
- melting point: 139 to 141 °C

SMILES: Fc1ccc([C@]2(Cn3cncn3)O[C@H]2c2ccccc2Cl)cc1 (racemic) [epoxiconazole, (2RS,3SR)-1-[3-(2-chlorophenyl)-2,3-epoxy-2-(4-fluorophenyl)propyl]-1H-1,2,4-triazole, reference compound]
- Observed effect (% infection) (Puccinia recondita; 0.25 mg/l): 5%

SMILES: COc1cc(C)c(C(=O)c2c(OC)ccc(Br)c2C)c(OC)c1OC [metrafenone, 3′-bromo-2,3,4,6′-tetramethoxy-2′,6-dimethylbenzophenone, reference compound]
- Observed effect (% infection) (Puccinia recondita; 4 mg/l): 0%

SMILES: Cn1cc(C(=O)Nc2ccccc2-c2cc(F)ccc2F)c(C(F)(F)F)n1 [No. I.1, N-(ortho-(2,5-difluorophenyl)phenyl)-1-methyl-3-trifluoromethylpyrazole-4-carboxamide]
- Observed effect (% infection) (Botrytis cinerea; 1 mg/l): 0%
- Observed effect (% infection) (Puccinia recondita; 1 mg/l): 5%
- Observed effect (% infection) (Phakopsora pachyrhizi): 29%
- Observed effect (% infection) (Septoria tritici; 1 mg/l): 0%

SMILES: Cn1cc(C(=O)Nc2ccccc2-c2cc(Cl)ccc2Cl)c(C(F)(F)F)n1 [No. I.5, N-(2′,5′-dichlorobiphenyl-2-yl)-1-methyl-3-trifluoromethyl-1H-pyrazole-4-carboxamide]
- melting point: 131 to 135 °C

SMILES: COc1ccc(C(=CC(=O)N2CCOCC2)c2ccc(Cl)cc2)cc1OC [dimethomorph, 3-(4-chlorophenyl)-3-(3,4-dimethoxyphenyl)-1-morpholin-4-yl-propenone, reference compound]
- Observed effect (% infection) (Septoria tritici; 4 mg/l): 20%

SMILES: CC1CCN(c2c(-c3c(F)cc(F)cc3F)c(Cl)nc3ncnn23)CC1 [5-chloro-7-(4-methylpiperidin-1-yl)-6-(2,4,6-trifluorophenyl)-[1,2,4]triazolo[1,5-a]-pyrimidine, reference compound]
- Observed effect (% infection) (Botrytis cinerea; 4 mg/l): 40%
